Experimental findings from US11149031B2, “Substituted N-(3-fluoropropyl)-pyrrolidine compounds, processes for their preparation and therapeutic uses thereof” (SANOFI, priority 2016, dated 2021) are described below.

Each structure is given as a SMILES string. Where two headings read alike, the source gives them in different places. Bounds are passed on as bounds.

Assay [1] concerns the target His6-ERα298-554 WT (ERα ligand-binding domain) (Homo sapiens (Human), UniProt P03372). The assay can be described thus: Test A: biochemical antagonist activity, LanthaScreen TR-FRET ERα coactivator assay, WT. Particulars: read-out: Antagonism WT IC50. The essentials: (§1)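 Compounds were added to receptor LBD (0.5 nM), terbium-labelled His6 antibody (0.5 nM), PGC1a coactivator peptide (250 nM) and estradiol at 3 nM or 10 nM. After incubating overnight at room temperature, the 520:495 nm ratio gave IC50 values by four-parameter logistic regression.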

Assay [2] deals with His6-ERα298-554 D538G mutant (ERα ligand-binding domain) (Homo sapiens (Human), UniProt P03372, D538G). The assay can be described thus: Test A: biochemical antagonist activity, LanthaScreen TR-FRET ERα coactivator assay, D538G mutant. To be noted: read-out: Antagonism D538G IC50. The essentials:
as §1

Assay [3] concerns the target His6-ERα298-554 Y537S mutant (ERα ligand-binding domain) (Homo sapiens (Human), UniProt P03372, Y537S). The assay can be described thus: Test A: biochemical antagonist activity, LanthaScreen TR-FRET ERα coactivator assay, Y537S mutant. Particulars: read-out: Antagonism Y537S IC50. In a few lines: as §1
Assay [4] relates to MCF7 cells (breast tumor cells) WT. The assay can be described thus: Test B: cell proliferation/viability assay (CellTiter-Glo) on MCF7 WT. Type of assay: cell-based. Particulars: Homo sapiens, MCF7, 168 h, 7 days of compound exposure. In a few lines: (§2)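 Viability is measured in MCF7 cells, either parental or engineered to depend on mutant estrogen receptor. Compounds act for 7 days at final concentrations from 3 to 0.000001 μM in hormone-depleted medium, with ATP luminescence as the read-out.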

Assay [5] has as its system MCF7 cells expressing mutant estrogen receptor Tyr 537 Ser. The assay can be described thus: Test B: cell proliferation/viability assay (CellTiter-Glo) on MCF7 Tyr 537 Ser mutant. Type of assay: cell-based. Particulars: Homo sapiens, MCF7, 168 h, MCF7 cells expressing ER Tyr 537 Ser mutant, 7 days of compound exposure, read-out: proliferation MCF7 Y537S IC50. In a few lines:
as §2

Assay [6] concerns MCF7 cells expressing mutant estrogen receptor Asp 538 Gly. The assay can be described thus: Test B: cell proliferation/viability assay (CellTiter-Glo) on MCF7 Asp 538 Gly mutant. Type of assay: cell-based. To be noted: Homo sapiens, MCF7, 168 h, MCF7 cells expressing ER Asp 538 Gly mutant, 7 days of compound exposure, read-out: proliferation MCF7 D538G IC50. In a few lines:
as §2

The next assay deals with ERα in MCF7 cells (Homo sapiens (Human), UniProt P03372). The assay can be described thus: Test C: estrogen receptor degradation activity, ERα in cell western assay in MCF7 cells. Type of assay: cell-based. Particulars: for DC50: 4 hours post compound addition, ERα in cell western, read-out: Degradation IC50; for % Degradation at 3 μM: 4 hours, relative to fulvestrant. In a few lines: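 Degradation of ERα was gauged in MCF7 cells after 4 h treatment, by fluorescence immunostaining normalised against DNA content.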
ERα in MCF7 cells, sequence (P03372 whole entry): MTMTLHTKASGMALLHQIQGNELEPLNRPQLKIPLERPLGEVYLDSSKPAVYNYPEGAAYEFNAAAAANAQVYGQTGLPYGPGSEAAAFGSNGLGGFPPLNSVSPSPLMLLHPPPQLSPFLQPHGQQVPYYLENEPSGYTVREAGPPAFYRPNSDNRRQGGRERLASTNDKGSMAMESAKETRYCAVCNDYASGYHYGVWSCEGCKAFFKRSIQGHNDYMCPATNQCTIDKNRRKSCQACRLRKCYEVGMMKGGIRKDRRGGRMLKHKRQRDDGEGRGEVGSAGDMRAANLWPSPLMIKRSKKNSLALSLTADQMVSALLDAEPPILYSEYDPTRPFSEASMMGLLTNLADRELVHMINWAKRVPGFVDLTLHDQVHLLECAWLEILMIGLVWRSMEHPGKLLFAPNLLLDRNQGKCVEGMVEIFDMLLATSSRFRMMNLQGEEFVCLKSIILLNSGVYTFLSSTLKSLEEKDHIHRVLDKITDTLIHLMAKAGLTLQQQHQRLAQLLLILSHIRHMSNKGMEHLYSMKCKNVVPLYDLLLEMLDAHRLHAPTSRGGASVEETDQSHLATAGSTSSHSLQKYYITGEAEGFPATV

[7] abbreviates: asterisk (*): protocol using 10 nM estradiol.

His6-ERα298-554 D538G mutant (ERα ligand-binding domain), sequence (P03372 298-554 D538G): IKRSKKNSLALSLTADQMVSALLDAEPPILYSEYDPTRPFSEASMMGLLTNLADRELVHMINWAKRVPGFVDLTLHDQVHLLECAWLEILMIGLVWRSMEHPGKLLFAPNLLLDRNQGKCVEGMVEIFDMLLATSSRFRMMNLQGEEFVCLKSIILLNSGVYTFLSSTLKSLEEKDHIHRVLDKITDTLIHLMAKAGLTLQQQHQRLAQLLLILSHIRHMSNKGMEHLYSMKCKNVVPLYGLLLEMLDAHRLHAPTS
His6-ERα298-554 Y537S mutant (ERα ligand-binding domain), sequence (P03372 298-554 Y537S): as the sequence (P03372 298-554 D538G) above, with Y240S, G241D counted along it
His6-ERα298-554 WT (ERα ligand-binding domain), sequence (P03372 298-554): as the sequence (P03372 298-554 D538G) above, with G241D counted along it

In the case of `COCCOc1ccc(C2=C(c3ccc(O[C@H]4CCN(CCCF)C4)cc3)c3ccc(O)cc3OCC2)cc1` [Example 146, 5-[4-[(3S)-1-(3-fluoropropyl)pyrrolidin-3-yl]oxyphenyl]-4-[4-(2-methoxyethoxy)phenyl]-2,3-dihydro-1-benzoxepin-8-ol], the IC50 in assay [1] (setting [7]) was found to be 51 nM; in assay [2] (setting [7]), 1170 nM; in assay [3] (setting [7]) it was 845 nM; in assay [4] it was 6 nM; in assay [5], 69 nM; in assay [6], 12 nM. Besides, at ERα in MCF7 cells, the DC50 was 2 nM. Further, the “% Degradation at 3 μM” value at ERα in MCF7 cells was found to be 86%.

For `Oc1ccc2c(c1)OCCC(c1ccc(OCCN3CCCC3)cc1)=C2c1ccc(O[C@H]2CCN(CCCF)C2)cc1` [Example 147, 5-[4-[(3S)-1-(3-fluoropropyl)pyrrolidin-3-yl]oxyphenyl]-4-[4-(2-pyrrolidin-1-ylethoxy)phenyl]-2,3-dihydro-1-benzoxepin-8-ol], the IC50 was 390 nM in assay [1] (setting [7]); > 4000 nM in assay [2] (setting [7]); 3810 nM in assay [3] (setting [7]); 52 nM in assay [4]; > 999 nM in assay [5]; 90 nM in assay [6]. At ERα in MCF7 cells, the DC50 was 49 nM. On ERα in MCF7 cells, the “% Degradation at 3 μM” value is on record as 77%.

For the molecule `COc1c(C(=O)O)cccc1C1=C(c2ccc(O[C@H]3CCN(CCCF)C3)cc2)c2ccc(O)cc2OCC1` [Example 148, 3-[5-[4-[(3S)-1-(3-fluoropropyl)pyrrolidin-3-yl]oxyphenyl]-8-hydroxy-2,3-dihydro-1-benzoxepin-4-yl]-2-methoxy-benzoic acid], the IC50 in assay [1] (setting [7]) is > 4000 nM; in assay [2] (setting [7]), > 4000 nM; in assay [3] (setting [7]) it was > 4000 nM; in assay [4] it was 222 nM; in assay [5], > 999 nM; in assay [6], 314 nM. Besides, the DC50 at ERα in MCF7 cells turned out to be 448 nM. The “% Degradation at 3 μM” value at ERα in MCF7 cells stood at 77%.

Take `Oc1ccc2c(c1)OCCC(c1ccc(OC3CC3)cc1)=C2c1ccc(O[C@H]2CCN(CCCF)C2)cc1` [Example 149, 4-[4-(cyclopropoxy)phenyl]-5-[4-[(3S)-1-(3-fluoropropyl)pyrrolidin-3-yl]oxyphenyl]-2,3-dihydro-1-benzoxepin-8-ol]: the IC50 in assay [1] (setting [7]) stood at 23 nM; in assay [2] (setting [7]), 303 nM; in assay [3] (setting [7]), 289 nM; in assay [4] it was 0.5 nM; in assay [5] it was 12 nM; in assay [6], 2 nM. At ERα in MCF7 cells, the DC50 stood at 0.9 nM. The “% Degradation at 3 μM” value on ERα in MCF7 cells came out at 91%.

As for `Oc1ccc2c(c1)OCCC(c1ccc3c(c1)CCO3)=C2c1ccc(O[C@H]2CCN(CCCF)C2)cc1` [Example 151, 4-(2,3-dihydrobenzofuran-5-yl)-5-[4-[(3S)-1-(3-fluoropropyl)pyrrolidin-3-yl]oxyphenyl]-2,3-dihydro-1-benzoxepin-8-ol], the IC50 in assay [1] (setting [7]) amounted to 6 nM; in assay [2] (setting [7]), 88 nM; in assay [3] (setting [7]) it was 68 nM; in assay [4] it was 0.3 nM; in assay [5] it was 7 nM; in assay [6], 1 nM. Also, the DC50 on ERα in MCF7 cells worked out at 0.4 nM. Further, the “% Degradation at 3 μM” value at ERα in MCF7 cells came out at 90%.

With `CCOc1ccc(C2=C(c3ccc(O[C@H]4CCN(CCCF)C4)cc3)c3ccc(O)cc3OCC2)c(F)c1` [Example 152, 4-(4-ethoxy-2-fluoro-phenyl)-5-[4-[(3S)-1-(3-fluoropropyl)pyrrolidin-3-yl]oxyphenyl]-2,3-dihydro-1-benzoxepin-8-ol], the IC50 in assay [1] (setting [7]) worked out at 9 nM; in assay [2] (setting [7]), 154 nM; in assay [3] (setting [7]), 107 nM; in assay [4], 0.5 nM; in assay [5], 4 nM; in assay [6], 3 nM. For the same molecule, at ERα in MCF7 cells, the DC50 was found to be 0.2 nM. The “% Degradation at 3 μM” value on ERα in MCF7 cells turned out to be 92%.

Turning to `CCOc1ccc(C2=C(c3ccc(O[C@H]4CCN(CCCF)C4)cc3)c3ccc(O)cc3OCC2)c(Cl)c1` [Example 153, 4-(2-chloro-4-ethoxy-phenyl)-5-[4-[(3S)-1-(3-fluoropropyl)pyrrolidin-3-yl]oxyphenyl]-2,3-dihydro-1-benzoxepin-8-ol], the IC50 in assay [1] (setting [7]) came to 6 nM; in assay [2] (setting [7]) it was 117 nM; in assay [3] (setting [7]) it was 86 nM; in assay [4], 0.3 nM; in assay [5], 3 nM; in assay [6], 0.7 nM. For the same molecule, the DC50 on ERα in MCF7 cells amounted to 0.2 nM. Further, at ERα in MCF7 cells, the “% Degradation at 3 μM” value stood at 91%.

Consider `COc1ccc(C2=C(c3ccc(O[C@H]4CCN(CCCF)C4)cc3)c3ccc(O)cc3OCC2)c(Cl)c1` [Example 154, 4-(2-chloro-4-methoxy-phenyl)-5-[4-[(3S)-1-(3-fluoropropyl)pyrrolidin-3-yl]oxyphenyl]-2,3-dihydro-1-benzoxepin-8-ol], for which the IC50 was 5 nM in assay [1] (setting [7]); 77 nM in assay [2] (setting [7]); 51 nM in assay [3] (setting [7]); 0.2 nM in assay [4]; 4 nM in assay [5]; 0.6 nM in assay [6]. Further, the DC50 on ERα in MCF7 cells stood at 0.2 nM. Further, the “% Degradation at 3 μM” value on ERα in MCF7 cells worked out at 92%.

Turning to `CCOc1ccc(C2=C(c3ccc(O[C@H]4CCN(CCCF)C4)cc3)c3cc(F)c(O)cc3OCC2)c(C)c1` [Example 155, 4-(4-ethoxy-2-methyl-phenyl)-7-fluoro-5-[4-[(3S)-1-(3-fluoropropyl)pyrrolidin-3-yl]oxyphenyl]-2,3-dihydro-1-benzoxepin-8-ol], the IC50 is 21 nM in assay [1] (setting [7]); 365 nM in assay [2] (setting [7]); 228 nM in assay [3] (setting [7]); 0.4 nM in assay [4]; 6 nM in assay [5]; 1 nM in assay [6]. Further, at ERα in MCF7 cells, the DC50 was 0.2 nM. In addition, at ERα in MCF7 cells, the “% Degradation at 3 μM” value was found to be 81%.

With `Oc1cc2c(cc1F)C(c1ccc(O[C@H]3CCN(CCCF)C3)cc1)=C(c1ccc3occc3c1)CCO2` [Example 156, 4-(benzofuran-5-yl)-7-fluoro-5-[4-[(3S)-1-(3-fluoropropyl)pyrrolidin-3-yl]oxyphenyl]-2,3-dihydro-1-benzoxepin-8-ol], the IC50 stood at 19 nM in assay [1] (setting [7]); 409 nM in assay [2] (setting [7]); 254 nM in assay [3] (setting [7]); 0.6 nM in assay [4]; 14 nM in assay [5]; 2 nM in assay [6]. Further, on ERα in MCF7 cells, the DC50 came out at 0.4 nM. For the same molecule, on ERα in MCF7 cells, the “% Degradation at 3 μM” value is given as 85%.

As to `COc1ccc(C2=C(c3ccc(O[C@H]4CCN(CCCF)C4)cc3)c3ccc(O)cc3OCC2)c(C)c1` [Example 157, 5-[4-[(3S)-1-(3-fluoropropyl)pyrrolidin-3-yl]oxyphenyl]-4-(4-methoxy-2-methyl-phenyl)-2,3-dihydro-1-benzoxepin-8-ol], the IC50 in assay [1] (setting [7]) is 2 nM; in assay [2] (setting [7]) it was 56 nM; in assay [3] (setting [7]), 36 nM; in assay [4], 0.2 nM; in assay [5], 4 nM; in assay [6], 0.6 nM. Moreover, the DC50 on ERα in MCF7 cells turned out to be 0.2 nM. The “% Degradation at 3 μM” value on ERα in MCF7 cells is given as 90%.

As for `Cc1cc(C2=C(c3ccc(O[C@H]4CCN(CCCF)C4)cc3)c3ccc(O)cc3SCC2)ccc1Cl` [Example 162, 4-(4-chloro-3-methyl-phenyl)-5-[4-[(3S)-1-(3-fluoropropyl)pyrrolidin-3-yl]oxyphenyl]-2,3-dihydro-1-benzothiepin-8-ol], the IC50 is 4 nM in assay [1] (protocol with 3 nM estradiol); 24 nM in assay [2] (protocol with 3 nM estradiol); 19 nM in assay [3] (protocol with 3 nM estradiol); 0.4 nM in assay [4]; 5 nM in assay [5]; 1 nM in assay [6]. Moreover, on ERα in MCF7 cells, the DC50 worked out at 0.8 nM. The “% Degradation at 3 μM” value on ERα in MCF7 cells is on record as 90%.

As to `Cc1ccc(C2=C(c3ccc(O[C@H]4CCN(CCCF)C4)cc3)c3ccc(O)cc3SCC2)c(F)c1` [Example 164, 4-(2-fluoro-4-methyl-phenyl)-5-[4-[(3S)-1-(3-fluoropropyl)pyrrolidin-3-yl]oxyphenyl]-2,3-dihydro-1-benzothiepin-8-ol], the IC50 in assay [1] (protocol with 3 nM estradiol) amounted to 3 nM; in assay [2] (protocol with 3 nM estradiol), 13 nM; in assay [3] (protocol with 3 nM estradiol) it was 9 nM; in assay [4] it was 0.6 nM; in assay [5], 5 nM; in assay [6] it was 0.6 nM. Further, the DC50 at ERα in MCF7 cells was determined as 0.5 nM. Also, the “% Degradation at 3 μM” value at ERα in MCF7 cells is reported as 91%.
